Assay results from patent US12369577B2, “Monoterpenoid/phenylpropanoid-containing compounds and methods of their making and use as baits” (KITTRICH CORPORATION, priority 2016, dated 2025).
“Also recorded” adds a separate entry of the source.

Assays:
[1] = test system: German cockroaches (Blattella germanica); assay: German cockroach feeding assay (compound in crushed Cheerios); assay type: in vivo; settings: for percentage mortality compared to the control / percentage mortality compared to the control at two weeks: 3.75% weight compound/weight food; for percentage mortality compared to the control: 1, 2, and 3 weeks (FIG. 1); for percentage mortality compared to the control at two weeks: α=0.05 (FIG. 2); for mortality at two weeks: 15% w/w food, two weeks (FIG. 3)
Description: Insects were kept in a constant 12:12-hour light: dark cycle and fed a diet of dry cat food (Purina® Cat Chow Complete®, rolled oats (HyVEE® Old Fashioned Oats), and Fluker's® Cricket Quencher.
Five adult German cockroaches (Blattella germanica) were introduced to mason jars with steel mesh at the top to prevent escape. 266.6 mg of crushed Cheerios™ (approximately two cheerios) was mixed with compound at varying concentrations by weight food. If the material was solid, a mortar and pestle was used to homogenize the crushed Cheerios and compound. If the material was a liquid, it was dissolved in acetone and aliquoted into the food slowly until the desired concentration of compound by weight food was achieved. If acetone was used as the carrier throughout the experiment, the food was carefully stirred repeatedly to ensure evaporation so that no more acetone was present in the food. This was done to prevent mortality due to the presence of solvent in the treated food. Controls consisted of food that was treated with approximately 1 mL of just acetone. […] Concentrations used to assess mortality were 3.75% and 15% weight compound by weight food. Total mortality was assessed at 2 weeks after introducing cockroaches into individual mason jars with food treated with different compounds.
Data is presented as average percentage mortality with the standard error of the mean (SEM). A minimum of three replicates were performed for each compound and a ANOVA with a post-hoc Student Newman-Kuels test was performed to compare individual treatments to the control (α=0.05).

[2] = test system: house flies (Musca domestica); assay: House fly feeding assay, solid food, choice assay; assay type: in vivo; settings: 15% w/w food; treated and untreated food; 5-days post exposure (FIG. 6)
From the text: The choice assay included one untreated food source of 1:1 evaporated milk powder and sucrose and one treated food source (with toxic biorational compounds) comprised of the same materials. Moreover, toxic insecticidal bait compounds were incorporated into the food mixture at a concentration of 15% w/w food. This increased concentration of toxic insecticidal bait was chosen to account for the concomitant lower percentage mortality expected due to the presence of both a treated and untreated food source. Mortality was recorded at 5-days post exposure.
Data is presented as average percentage mortality with the standard error of the mean (SEM). This number was compared to the total number of flies introduced to each aquaria for each replicate, and a percentage mortality was calculated. A minimum of three replicates were performed for each compound.

[3] = test system: house flies (Musca domestica); settings: in vivo
Description: House flies (Musca domestica) were obtained from an established colony maintained by the Pesticide Toxicology Laboratory, Department of Entomology at iowa State University, Ames IA Flies were maintained according to standard laboratory protocols. House flies were supplied with water via cotton wick and solid support of sugar and dry milk (mixed 1:1), ad libitum. Prior to testing, house flies were maintained at a temperature of 24±2° C., were held at 30%±10% relative humidity, and a 12:12 hr light:dark photoperiod. Flies were randomly chosen from one of three separate Bioquip BugDorm® cages on different days to prevent a potential bias in health.

[4] = test system: Northern house mosquitoes (Culex pipiens); settings: 0.1%
[5] = test system: house flies (Musca domestica); assay: House fly feeding assay, solid food, non-choice; assay type: in vivo; settings: 5% weight/weight food compound plus 0.5% Z-9-tricosene (Muscalure) (FIG. 5)
From the text: Approximately 20-30 adult house flies (Musca domestica) were introduced into aquaria (2.5 gallon) with a French square filled with de-ionized water. Cotton dental wicks were used to draw water up and present it to flies at the top of the French square. Different concentrations of compounds were introduced into 1:1 mixtures of evaporated milk powder and sucrose. 2 grams of food was provided to flies with compound incorporated at various weights by weight food. If the material was solid, a mortar and pestle was used to homogenize the crushed evaporated milk powder, sucrose, and compound. If the material was a liquid, it was dissolved in acetone and aliquotted into the food slowly until the desired concentration of compound by weight food was achieved. If acetone was used as the carrier throughout the experiment, the food was carefully stirred repeatedly to ensure evaporation so that no more acetone was present in the food. The concentration used to assess mortality was 5% weight compound by weight food. Total mortality was assessed at 5 days after introducing house flies into individual mason jars with food treated with different compounds. […]
Data is presented as average percentage mortality with the standard error of the mean (SEM). This number was compared to the total number of flies introduced to each aquaria for each replicate, and a percentage mortality was calculated. […]

## CC(C)=CCCC(C)CC(=O)OCCOC(=O)CC(C)CCC=C(C)C (centres unmarked) [ethylene dicitronellate]
[1]
  percentage mortality compared to the control: considerably higher percentage mortality at all time points compared to the control group
  percentage mortality compared to the control at two weeks: statistically significant percentage mortality compared to the control
  mortality at two weeks: 100%
[1]; listed as Ethylene dicitronellate
  percentage mortality compared to the control: considerably higher percentage mortality compared to the control

## CCCCCOC(=O)COc1cc(C)ccc1C(C)C [amyl ester of thymyloxyacetic acid, amyl thymyloxyacetate]
[2]
  toxicity and palatability in choice assay: significant levels of toxicity

## CC(C)=CCCC(C)CC(=O)OC1C(OC(=O)CC(C)CCC=C(C)C)C(OC(=O)CC(C)CCC=C(C)C)C(OC(=O)CC(C)CCC=C(C)C)C(OC(=O)CC(C)CCC=C(C)C)C1OC(=O)CC(C)CCC=C(C)C (centres unmarked) [hexacitronellyl inositol, hexacitronelloylinositol]
[1]
  mortality at two weeks: 100%

## Cc1ccc(C(C)C)c(O)c1 [thymol, reference compound]
[3]
  percentage mortality at 120 hours: 25±10.7%

## CC(C)=CCCC(C)CC(=O)OCC(O)COC(=O)CC(C)CCC=C(C)C (centres unmarked) [dicitronelloyl glycerol, dicitronelloylglycerol]
[1]
  percentage mortality compared to the control at two weeks: statistically significant percentage mortality compared to the control

## CC(C)=CCC/C(C)=C/COC(=O)COc1cc(C)ccc1C(C)C [geranyl thymyloxyacetate]
[2]
  toxicity and palatability in choice assay: significant levels of toxicity

## Cc1ccc(C(C)C)c(OCC(=O)O)c1 [thymyloxyacetic acid]
[4]; 96, 120, and 144 hours
  percentage mortality compared to boric acid (FIG. 8 legend): higher numerical percentage mortality than boric acid
[4]; 96, 120, and 144 hours (FIG. 8)
  percentage mortality compared to the sucrose-only control: statistically significant percentage mortality compared to the sucrose-only control
[4]; 120 and 144 hours
  percentage mortality compared to boric acid: much higher numerical percentage mortality compared to boric acid
[4]; 144 hours after introduction
  maximum percentage mortality: 95±3.53%
[4]; all time points, lack of statistical significance
  performance compared with boric acid: performed as well as boric acid
[3]
  mortality compared with boric acid: performed similarly
  percentage mortality at 48 hours: 26.7%
  percentage mortality at 72 hours: 80%
  percentage mortality at 96 hours: 93.3%
  percentage mortality at 120 hours: 100%

## O=C(CCCCC(=O)OC/C=C/c1ccccc1)OC/C=C/c1ccccc1 [dicinnamyl adipate]
[5]
  percentage mortality with added Z-9-tricosene: higher percentage mortality; also recorded: increased toxicity

## Cc1ccc(C(C)C)c(OCC(=O)OC(C)C)c1 [isopropyl ester of thymyloxyacetic acid]
[2]
  toxicity and palatability in choice assay: significant levels of toxicity

## OB(O)O [boric acid, reference compound]
[3]
  percentage mortality at 120 hours: 100%

## CC(C)=CCCC(C)CCOC(=O)COc1cc(C)ccc1C(C)C (centres unmarked)
[2]
  toxicity and palatability in choice assay: significant levels of toxicity
